Laboratory results taken from patent US20110027230A1 (priority 2008, published 2011).

Experiments:
[1] = tested on: C57BL/6J-APC Min/+ transgenic mice; test: Number and volume of intestinal polyps in APC Min/+ mice fed different diets for 10 weeks; assay type: in vivo, mouse; conditions: standard diet, s.c. pellet 1.5 mg 17β-estradiol, mean ± SD
Text: The C57BL/6J APC Min/+ transgenic mouse is an excellent animal model for FAP, because the mutated APC gene is homologous to the human one. Even in the most common form of CRC, called sporadic, 85% of cases show the somatic mutation of the APC tumour suppressor gene. Therefore, the APC mutated transgenic animal model is acknowledged as the most significant for the study of the pathogenetic mechanisms that characterise the adenomatous polyposis in the colon, both in FAP and sporadic form, and it is considered a validated animal model for the set up of nutritional and pharmacological interventions aimed at controlling the development of adenomas and at preventing their progression to CRC (Levy D B et al. Inactivation of both APC alleles in human and mouse tumors. Cancer Res 1994, 54: 5953-5958; Paulsen J E et al. Qualitative and quantitative relationship between dysplastic aberrant crypt foci and tumorigenesis in the Min/+ mouse colon). For this reason, in setting up the oral formulations object of the present invention, and in the evaluation of their safety and efficacy, the Inventors made use of the above mentioned C57BL/6J APC Min/+ transgenic mouse model. Hereafter are described the data showing the effect in C57BL/6J-APC Min/+ transgenic mice, orally fed silymarin added diets, containing soluble and insoluble fibres in different proportions with the purpose of highlighting the differentiative properties of the insoluble and indigestible fibre. […]
After 10 weeks of treatment the animals received an intraperitoneal injection of 0.75 mg of Bromodeoxyuridine (BrdU), equivalent to 30 mg/kg, to verify the migration of cells of the intestinal mucosa along the villus axis (from crypt at the bottom to the luminal tip). […] Two blinded observers measured the number and size of polyps. […]

[2] = Body weight, mortality, dietary intake and tolerability during 10 weeks of diet; conditions: standard diet, s.c. pellet 1.5 mg 17β-estradiol, mean ± SD
Method: Silymarin up to 200 mg/kg was added to each diet. The diets were orally administered for 10 weeks to 114 male C57BL/6J-APC Min/+ transgenic mice 5-6 weeks old. These mice have a mutation of the APC gene, and are prone to develop colon adenomatous polyposis. […] The statistical analysis has been performed by means of the One-way Analysis of Variance and the t-Student tests, considering statistically significant a p<0.05.
Every oral treatment lasted 10 weeks. The treatment scheme was designed to highlight the effects of the type of fibre, associated or not with increasing amounts of silymarin.

[3] = tested on: C57BL/6J-APC Min/+ transgenic mice; test: Histological grading of dysplasia of adenomatous formations; assay type: in vivo, mouse; conditions: estradiol-treated animals
Text: Histological preparations of randomly chosen intestine sections of every animal from the different treatment groups were observed by a blinded pathologist, who graded the dysplasia of the adenomatous formations present as minor, mild or severe.

[4] = tested on: cells of the intestinal mucosa; test: BrdU cell migration along the villus axis (highest labeled cell); assay type: in vivo, mouse; conditions: estrogen s.c., standard diet, 24 h after BrdU
Method: After 10 weeks of treatment the animals received an intraperitoneal injection of 0.75 mg of Bromodeoxyuridine (BrdU), equivalent to 30 mg/kg, to verify the migration of cells of the intestinal mucosa along the villus axis (from crypt at the bottom to the luminal tip). This parameter allows to verify the normal esfoliative physiology of the intestinal mucosa, through which the mucosa keeps itself composed of healthy and vital cells. To this end, the animals were sacrificed 24, 48 and 72 hours after injection. Small intestine and colon were taken from every sacrificed animal. The small intestine was divided into three sections: proximal, medial and distal. The proximal tract was further divided in two portions that were subsequently scraped. One of the two was dipped in RNAlater® and stored at −20° C. and the other stored in liquid nitrogen. The two samples were used for Real Time PCR and Western Blotting, respectively. The medial and distal tracts, together with the colon, were used for the histological analysis. After a 3-hours pre-fixative treatment with formol, the intestinal tracts under examination were observed under an STM1 stereomicroscope, 3× magnification. Two blinded observers measured the number and size of polyps.

[5] = tested on: C57BL/6J-APC Min/+ transgenic mice; conditions: female transgenic mice, administration after ovariectomy, Weyant et al.; cited from earlier work

Compound: C[C@]12CC[C@@H]3c4ccc(O)cc4CC[C@H]3[C@@H]1CC[C@@H]2O [estrogen, 17β-estradiol]
- Number of intestinal polyps [1]: 32.33 ± 12.06
- Polyps volume ([1]; listed as Estrogen): 141.78 ± 79.1 mm^3
- Polyps volume ([1]; listed as estradiol): ineffective
- Body weight at time of sacrifice [2]: 24.9 ± 2.8 g
- Animals showing polyps with dysplasia classifiable as severe [3]: 70%
- 24 hours migration of colonocytes from the crypt to the apex of the villus [4]: 47.3 ± 10.5 %
- Intestinal adenomas after ovariectomy [5]: caused a reduction in intestinal adenomas
